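A five-concentration, 48-hour dose response in 96-well plates underlies each endpoint, interpolated linearly between surrounding concentrations. GI50 = concentration required for 50% inhibition of growth.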 Calls of active or inactive are those of the source. Rule as the data show it: active = GI50 up to about 1.1 µM and inactive = higher.
Experiments:
Assay in all cases: inhibition of tumour cell growth, NCI panel, 48 h
PC-3 = system: PC-3
HT-29 = system: HT-29
HL-60 = system: HL-60
MDA-N = system: MDA-N
NCI-H226 = system: NCI-H226
NCI/ADR-RES = system: NCI/ADR-RES
LOX IMVI = system: LOX IMVI
SNB-75 = system: SNB-75
HOP-92 = system: HOP-92
ACHN = system: ACHN
SF-295 = system: SF-295
CAKI-1 = system: CAKI-1
SK-MEL-5 = system: SK-MEL-5
M14 = system: M14
HCC 2998 = system: HCC 2998
UACC-62 = system: UACC-62
SK-OV-3 = system: SK-OV-3
MCF7 = system: MCF7
SK-MEL-28 = system: SK-MEL-28

Measured: GI50

CC12CC(C#N)(C#N)C(C#N)(CO1)C(=N)O2 (stereo not given)
inactive: PC-3 > 100 µM | HT-29 69.2 µM | HL-60 44.2 µM | MDA-N > 100 µM | NCI-H226 > 100 µM | NCI/ADR-RES 71.1 µM | LOX IMVI 49.3 µM | SNB-75 > 100 µM | HOP-92 52.7 µM | ACHN > 100 µM | SF-295 > 100 µM | CAKI-1 31.8 µM | SK-MEL-5 > 100 µM | M14 > 100 µM | HCC 2998 > 100 µM | UACC-62 24.9 µM | SK-OV-3 > 100 µM | MCF7 > 100 µM | SK-MEL-28 > 100 µM

Cc1ccc(C(=O)/C=C2/Nc3ccc([N+](=O)[O-])cc3N/C2=C/C(=O)c2ccc(C)cc2)cc1
inactive: PC-3 92.3 µM | HT-29 > 100 µM | HL-60 34.7 µM | MDA-N > 100 µM | NCI-H226 > 100 µM | NCI/ADR-RES 47.6 µM | LOX IMVI > 100 µM | SNB-75 10.6 µM | HOP-92 61.4 µM | ACHN 37.5 µM | SF-295 41.3 µM | CAKI-1 87.5 µM | SK-MEL-5 > 100 µM | M14 > 100 µM | HCC 2998 > 100 µM | UACC-62 24.7 µM | SK-OV-3 41.1 µM | MCF7 84.1 µM | SK-MEL-28 > 100 µM

COC(=O)c1cc(-c2ccc3ccccc3c2)nc(O)c1C#N
inactive: PC-3 > 100 µM | HT-29 > 100 µM | HL-60 20.3 µM | MDA-N > 100 µM | NCI-H226 > 100 µM | NCI/ADR-RES > 100 µM | LOX IMVI > 100 µM | SNB-75 > 100 µM | HOP-92 > 100 µM | ACHN > 100 µM | SF-295 > 100 µM | CAKI-1 > 100 µM | SK-MEL-5 > 100 µM | M14 > 100 µM | HCC 2998 17.1 µM | UACC-62 > 100 µM | SK-OV-3 > 100 µM | MCF7 > 100 µM | SK-MEL-28 > 100 µM

CC(=O)OCC1OC(n2c(-c3ccc(C)cc3)cc(-c3ccccc3)c(C#N)c2=S)C(OC(C)=O)C(OC(C)=O)C1OC(C)=O (stereo not given)
inactive: PC-3 > 100 µM | HT-29 > 100 µM | HL-60 > 100 µM | MDA-N > 100 µM | NCI-H226 > 100 µM | NCI/ADR-RES > 100 µM | LOX IMVI > 100 µM | SNB-75 32.7 µM | HOP-92 > 100 µM | ACHN > 100 µM | SF-295 > 100 µM | CAKI-1 > 100 µM | SK-MEL-5 37.8 µM | M14 > 100 µM | HCC 2998 > 100 µM | UACC-62 > 100 µM | SK-OV-3 > 100 µM | MCF7 > 100 µM | SK-MEL-28 > 100 µM

O=c1[nH]c(=O)c2c3n(cc2[nH]1)CCCCC3
inactive: PC-3 > 100 µM | HT-29 > 100 µM | HL-60 > 100 µM | MDA-N > 100 µM | NCI-H226 > 100 µM | NCI/ADR-RES > 100 µM | LOX IMVI > 100 µM | SNB-75 > 100 µM | HOP-92 > 100 µM | ACHN > 100 µM | SF-295 > 100 µM | CAKI-1 > 100 µM | SK-MEL-5 > 100 µM | M14 > 100 µM | HCC 2998 > 100 µM | UACC-62 > 100 µM | SK-OV-3 > 100 µM | MCF7 > 100 µM | SK-MEL-28 > 100 µM

Cc1ccc(S(=O)(=O)NNCNC(=O)c2ccccc2)cc1
inactive: PC-3 > 100 µM | HT-29 61.2 µM | HL-60 16.4 µM | MDA-N 33.9 µM | NCI-H226 > 100 µM | NCI/ADR-RES 54.6 µM | LOX IMVI 68.7 µM | SNB-75 > 100 µM | HOP-92 > 100 µM | ACHN > 100 µM | SF-295 > 100 µM | CAKI-1 > 100 µM | SK-MEL-5 > 100 µM | M14 > 100 µM | HCC 2998 > 100 µM | UACC-62 71.6 µM | SK-OV-3 > 100 µM | MCF7 > 100 µM | SK-MEL-28 > 100 µM

CCOc1ccc2nc3nc(O)nc(C)c3c(NCCCN(CC)CC)c2c1
inactive: PC-3 > 100 µM | HT-29 > 100 µM | HL-60 > 100 µM | MDA-N > 100 µM | NCI-H226 > 100 µM | NCI/ADR-RES > 100 µM | LOX IMVI > 100 µM | SNB-75 > 100 µM | HOP-92 > 100 µM | ACHN > 100 µM | SF-295 > 100 µM | CAKI-1 > 100 µM | SK-MEL-5 > 100 µM | M14 > 100 µM | HCC 2998 > 100 µM | UACC-62 > 100 µM | SK-OV-3 > 100 µM | MCF7 > 100 µM | SK-MEL-28 > 100 µM

N#Cc1cnn2c1n[n+]([O-])c1ccc(Cl)cc12
inactive: PC-3 14.7 µM | HT-29 7.98 µM | HL-60 2.86 µM | MDA-N 8.65 µM | NCI-H226 18.6 µM | NCI/ADR-RES 9.68 µM | LOX IMVI 3.98 µM | SNB-75 6.9 µM | HOP-92 2.19 µM | ACHN 5.79 µM | SF-295 14.7 µM | CAKI-1 1.26 µM | SK-MEL-5 12.4 µM | M14 8.13 µM | HCC 2998 1.92 µM | UACC-62 4.49 µM | SK-OV-3 8.61 µM | MCF7 28.7 µM | SK-MEL-28 13.2 µM

COc1cc(S(=O)(=O)Nc2ccc(-c3csc(N4C(=O)CSC4c4ccccc4O)n3)cc2)ccc1Cl (stereo not given)
inactive: PC-3 38.1 µM | HT-29 92 µM | HL-60 22.2 µM | MDA-N 32.9 µM | NCI-H226 32.9 µM | NCI/ADR-RES > 100 µM | LOX IMVI 34.4 µM | SNB-75 31.9 µM | HOP-92 29.2 µM | ACHN 32.4 µM | SF-295 72.6 µM | CAKI-1 > 100 µM | SK-MEL-5 58.7 µM | M14 64.3 µM | HCC 2998 21.6 µM | UACC-62 29.4 µM | SK-OV-3 > 100 µM | MCF7 30.9 µM | SK-MEL-28 24.5 µM

CCOC(=O)C(NC(=O)c1ccccc1)(Nc1ccc(S(=O)(=O)Nc2ccc(OC)nn2)cc1)C(F)(F)F (stereo not given)
inactive: PC-3 > 100 µM | HT-29 > 100 µM | HL-60 > 100 µM | MDA-N > 100 µM | NCI-H226 > 100 µM | NCI/ADR-RES > 100 µM | LOX IMVI > 100 µM | SNB-75 > 100 µM | HOP-92 > 100 µM | ACHN > 100 µM | SF-295 > 100 µM | CAKI-1 > 100 µM | SK-MEL-5 > 100 µM | M14 > 100 µM | HCC 2998 > 100 µM | UACC-62 > 100 µM | SK-OV-3 > 100 µM | MCF7 > 100 µM | SK-MEL-28 > 100 µM

— ChEMBL document CHEMBL1201862, “PubChem BioAssay data set” (2004)
